Source: patent US20200188469A1, “COMPOUNDS AND METHODS FOR INHIBITING CDK5 ALLEVIATE CARDIAC PHENOTYPES IN TIMOTHY SYNDROME AND RELATED CONDITIONS” (priority 2017, published 2020)
Entries after “also recorded” stand apart in the source; their conditions may differ.

Assays:
[1] = system: Timothy syndrome cardiomyocytes; assay: Contraction assay with Matlab-based analysis and calcium imaging (Roscovitine analog and CDK inhibitor tests); assay type: cell-based, human; conditions: two rounds: cardiomyocyte clusters 24 hours, intact monolayer 2 hours after treatment; 5 μM, (R)-CR8 1 or 2 μM
Procedure: Two rounds of chemical tests were conducted to test the compounds. The first round of chemical test was conducted using Timothy syndrome cardiomyocyte clusters isolated from the monolayer cardiomyocytes to screen the compounds efficiently and to identify the positive compounds that could increase the spontaneous beating rate and decrease the contraction irregularity of the Timothy syndrome cardiomyocyte clusters (FIG. 1C).
The working solution of each compound was made by diluting the stock solution in our cardiomyocyte culture media to a final concentration of 5 μM except for (R)-CR8, which was diluted to a final concentration of 1 or 2 μM. The contraction analysis was performed as reported previously (Yazawa et al., 2011). The movies were taken before the treatment, and 24 hours after the treatment of each compound from the Timothy syndrome cardiomyocyte clusters isolated from the monolayer cardiomyocytes for the first round of test. The movies were taken before the treatment, and 2 hours after the treatment of each positive compound on the intact monolayer Timothy syndrome cardiomyocytes for the second round of test. The contraction rate and the irregularity of each sample before and after treatment were compared using paired Student t-test.

CDK5/p35 = biological target: T1, CDK5/p35 (Homo sapiens, UniProt Q00535); assay: In vitro kinase assay (ADP-Glo luminescence); assay type: biochemical; conditions: wild-type II-III loop or C-term of Cav1.2 as substrates
T1 construct: purchased Promega V3271
T1 sequence (Q00535 whole entry): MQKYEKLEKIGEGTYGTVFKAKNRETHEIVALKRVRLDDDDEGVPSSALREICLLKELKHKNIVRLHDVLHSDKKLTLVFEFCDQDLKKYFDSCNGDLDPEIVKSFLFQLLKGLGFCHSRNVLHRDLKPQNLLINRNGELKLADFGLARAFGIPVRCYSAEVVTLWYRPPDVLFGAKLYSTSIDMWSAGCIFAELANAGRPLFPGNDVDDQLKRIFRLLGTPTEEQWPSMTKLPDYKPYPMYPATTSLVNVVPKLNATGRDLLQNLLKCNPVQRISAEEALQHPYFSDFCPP
T1 sequence (Q15078 whole entry partner): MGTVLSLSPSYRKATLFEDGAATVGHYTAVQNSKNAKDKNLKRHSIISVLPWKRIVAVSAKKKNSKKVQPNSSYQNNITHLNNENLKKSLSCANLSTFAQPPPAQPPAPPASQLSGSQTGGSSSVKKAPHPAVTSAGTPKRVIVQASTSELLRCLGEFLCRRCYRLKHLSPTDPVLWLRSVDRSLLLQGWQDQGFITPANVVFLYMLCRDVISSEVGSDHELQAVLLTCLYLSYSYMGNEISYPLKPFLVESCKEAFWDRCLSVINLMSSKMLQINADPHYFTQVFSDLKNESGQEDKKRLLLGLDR
Text: To determine whether CDK5 phosphorylates Cav1.2, an in vitro kinase assay was designed. The wild-type II-III loop or the C-term of Cav1.2 was used as the substrates in this assay. Mutant II-III loop and mutant C-term constructs were generated with substitutions of serine/threonine to glycine or alanine in all CDK5 consensus sequences as negative controls. The phosphorylation of the substrates by CDK5 consumes ATP and produces ADP, which is then converted into luminescence by detection reagents in the assay (FIG. 3D). The luminescence signal was reduced when the CDK5 inhibitor, PHA-793887 was added to the reactions using wild-type II-III loop or C-term as the substrates. […]
To prepare the substrates, the HEK 293T cells were transfected with the plasmid containing either the FLAG-tagged wild-type II-III loop or mutant II-III loop or wild-type C-terminus or mutant C-terminus using Lipofectamine 2000 (Thermo Fisher Scientific) following the manufacturer's protocol 24 hours after plating. […] A series of samples for a standard curve were prepared based on the manufacturer's instructions to determine the ATP-ADP conversion from the luminescence signals in every round of experiment. […] 20 ul of the samples from each tube was then transferred into a 96 well microplate and the luminescence was measured with the GloMax® 96 Microplate Luminometer (Promega).

[2] = system: TS cardiomyocytes derived from hiPSCs; conditions: high dose; cited from earlier work
[3] = system: Cav1.2 with Timothy syndrome mutation; conditions: heterologous over-expression system; cited from earlier work
Cav1.2 channels = assay: Voltage-clamp recordings of Ba2+ currents (voltage-dependent inactivation of Cav1.2); assay type: cell-based, human; conditions: TS cardiomyocytes with CDK5 DN expression; 5 μM, 3 min
Procedure: The Timothy syndrome and control iPSCs were differentiated into cardiomyocytes following a protocol reported previously (Song et al., 2015) and infected with the lentiviruses at day 19-21 or day 25-27 after cardiac differentiation. The cardiomyocytes were dissociated into single cells for whole-cell patch-clamp recordings at day 31. Whole-cell patch-clamp recordings of iPSC-derived cardiomyocytes were conducted using a MultiClap 700B patch-clamp amplifier (Molecular Devices) and an inverted microscope equipped with differential interface optics (Nikon, Ti-U). The glass pipettes were prepared using borosilicate glass (Sutter Instrument, BF150-110-10) using a micropipette puller (Sutter Instrument, Model P-97). Voltage-clamp measurements were conducted using an extracellular solution consisting of 5 mM BaCl2, 160 mM TEA and 10 mM HEPES (pH7.4 at 25° C.) and a pipette solution of 125 mM CsCl, 0.1 mM CaCl2, 10 mM EGTA, 1 mM MgCl2, 4 mM MgATP and 10 mM HEPES (pH 7.4 with CsOH at 25° C.). Two pulse protocols were used. One protocol was that cells were held at −90 mV and then depolarized to −10 mV for 400 ms at a rate of 0.1 Hz for the Ba^2+ current recordings. […] Recorded action potentials were analyzed using Clampfit 10.4 (Axon Instruments).

[4] = withdrawn from US market in 2000; cited from earlier work

For `CC[C@H](CO)Nc1nc(NCc2ccc(-c3ccccn3)cc2)c2ncn(C(C)C)c2n1` [CR8], the “effects on Timothy syndrome cardiomyocytes (spontaneous beating rate, contraction irregularity)” value (“effects” for short) [1] was “beneficial effects”.

With `COc1ccc(CNc2nc(NCc3ccc(OC)cc3)c3ncn(C4CCCCC4)c3n2)cc1` [Myoseverin B] the “effects” value [1] was “beneficial effects”.

With `CC(C)CC(=O)Nc1[nH]nc2c1CN(C(=O)C1CCN(C)CC1)C2(C)C` [PHA-793887] the “effects” value [1] was “beneficial effects” and the “luminescence signal (phosphorylation of substrate by CDK5)” value (CDK5/p35) was “reduced; also recorded: blocked the phosphorylation”.

For `CC[C@H](CO)Nc1nc(NCc2ccccc2)c2ncn(C(C)C)c2n1` [Roscovitine], the “cardiac phenotypes of TS cardiomyocytes” value [2] is listed as “rescue the cardiac phenotypes”, the “voltage-dependent inactivation of Cav1.2 with Timothy syndrome mutation” value [3] is listed as “enhance the voltage-dependent inactivation” and the “voltage-dependent inactivation of Cav1.2” value (Cav1.2 channels) is listed as “did not further enhance; also recorded: did not significantly enhance”.

For `COc1cc(N)c(Cl)cc1C(=O)NC1CCN(CCCOc2ccc(F)cc2)CC1OC` (centres unmarked) [cisapride], the side effect [4] is listed as “QT prolongation”.
